Measured values: US20090099218A1, “SYNTHESIS OF NOVEL TUBULIN POLYMERIZATION INHIBITORS: BENZOYLPHENYLUREA (BPU) SULFUR ANALOGS” (priority 2007, published 2009)
pIC50: −log10 of the molar value.

What was measured:
Panc203 = assay: MTT growth inhibition, pancreatic cell line Panc203; type: cell-based; details: Panc203; for pIC50: Homo sapiens, MTT assay, 96 h treatment, average of three independent experiments
Description: (§1) Eight of these analogs 6d, 6h, 6n, 6g, 7b, 7d, 8g, and 8h were tested for their cytotoxicity in seven pancreatic cell lines ASPC1, Panc1, Panc203, Panc430, Pane 1005, MiaPaca2, and HS766T using MTT assay. Cells were trypsinized, seeded at 5×10^3 cells/well in 96-well plate and allowed to grow for 24 hours before the treatment with exponential increasing concentrations of drugs in the presence of 10% FBS. After a 96-hours period of treatment, 20 μl of MTT solution (5 mg/ml in PBS) were added to each well, and the plates were then incubated for 3 hours at 37° C. Medium was then replaced with 100 μl of DMSO per well. Plates were shaken and the optical density was measured at 570 nm using a multiwell plate reader (Bio-Rad, Model 550, Bio-Rad Inc., Hercules, Calif.). Each experiment was performed in triplicate for each drug concentration and was carried out independently at least 3 times. The IC50 value was defined as the concentration needed for a 50% reduction in the absorbance calculated based on the survival curves. Response to drug treatment was assessed by standardizing treatment groups to untreated controls. Compounds activity was compared with compound 1.
(§2) Table 2 (Growth Inhibition of Pancreatic Cancer Cell Lines by BPU and BPTU Analogues (IC50) a) compares the cytotoxicity of a series of new derivatives against a panel of seven pancreatic cancer cell lines, as determined by MTT assay. See, Mosmann, T., J. Immunol. Methods 65:55-63 (1983).

Panc430 = assay: MTT growth inhibition, pancreatic cell line Panc430; type: cell-based; details: for pIC50: MTT assay, 96 h treatment, average of three independent experiments
Description: as §1, §2

Miapaca2 = assay: MTT growth inhibition, pancreatic cell line Miapaca2; type: cell-based; details: for pIC50: Homo sapiens, MIA PaCa-2, MTT assay, 96 h treatment, average of three independent experiments
Description: as §1, §2

CWR22R = assay: MTT growth inhibition, prostate cancer cell line CWR22R; type: cell-based, human; details: for pIC50: Homo sapiens, 22Rv1, MTT assay, average of three independent experiments
LnCaP = assay: MTT growth inhibition, prostate cancer cell line LnCaP; type: cell-based, human; details: for pIC50: Homo sapiens, LNCaP, MTT assay, average of three independent experiments
Description: (§3) This MTT assay was carried using human prostate cancer cell lines CWR22R, LAPC-4 and LnCap using Promega cell titer 96 nonradioactive cell proliferation kits. Cells were trypsinized and centrifuged at 1000 rpm for 5 minutes and the supernatant was aspirated. Cells were resuspended with HBSS to a concentration of 10^6/ml. Cell suspension was diluted in serum containing medium to plate 2000 cells/well/0.2 ml. Cell suspension was transferred to sterile solution basin. Cells were plated using multichannel pipette set at 200 μl and incubated overnight for attachment. One plate was prepared for day 0 MTT assay as follows: 100 μl of media was removed from each well using multichannel pipette and 15 μl of MTT reagent was added. Plates were incubated at 37° C. for 4 hrs. […] of STOP solution was added to each well and incubated at room temperature for 1 hour. Absorbance was measured at 570 and 650 nm on plate reader. All the media from the remaining plates were carefully removed and the cells were treated with the media containing drug. MTT assays were done on days 0, 3, 5 and 7. In the preliminary screening […] BPU sulfur analogs 6l, 6h, 6n, 7d and 8h were screened and their activity was compared with compound 1.
Compounds with significant inhibitory activity in pancreatic cancer cells were further evaluated against prostate cancer cell lines in the MTT assay, (Mosmann, T., J. Immunol. Methods 65:55-63 (1983)) and the results were compared to those for compound 1 (Table 3).

[1] = test system: 11 pancreatic cancer cell line panel; assay: Clonogenic growth, pancreatic cancer cell line panel; type: cell-based; details: doses above 0.5 μmol/L
Description: The cell lines ASPC1, MiaPaca2, HS766T, and L36PL were obtained from the American Tissue Culture Collection and are derived from pancreas carcinomas. The cell lines Panc1, Panc203, and Panc1005 are low-passage pancreas cell lines. The cell lines XPA3 and XPA4 are lowpassage. The cell lines E3LZ10 and E3JD13 are lowpassage pancreas cell lines. For clonogenic assessment, 500 cells per well were seeded in six-well plates with enriched RPMI (10% fetal bovine serum+1% penicillin/streptomycin) and exposed to increasing drug concentrations for 96 h. After this, the drug was removed, and the cells were allowed to grow for 14 days before manual colony counting. Each experiment was done in duplicate for each drug concentration and was carried out independently at least thrice. For MAPT protein and mRNA expression analysis, the cell lines were grown in six-well plates with enriched RPMI. When the cells reached a 60% to 70% confluence, they were washed twice with chilled PBS; lysis buffer was added to the plates; and the cells were scraped for protein extraction. An identical experimental set was lysed with RLT (Qiagen) for mRNA extraction.
Clonogenic growth was impaired at concentrations between 0.01 and 0.5 μmol/L (FIG. 35B), with no colony formation at higher doses in 9 of the 11 cell lines. […] Two isoforms of MAPT protein were detected (45 and 65 kDa). […]

[2] = In vivo dose-finding study; details: for toxicity: 20 mg/kg and 30 mg/kg twice per week i.p., 4 weeks, six mice; for remaining animals that lost >15% of their weight: 50 mg/kg thrice per week i.p.; for mice that died in the 3rd week: mouse, in vivo
Description: Both compounds were explored by the i.p. route in cohorts of six mice each, with a duration of treatment of 4 weeks. […] Therefore, 50 mg/kg twice per week was explored. […] Therefore, the dose was escalated to 50 mg/kg thrice per week. In the 6n and 7d groups, respectively, two and one of the mice died in the 3rd week, and three of four and four of five of the remaining animals lost >15% of their weight. Thus, for 28-day efficacy studies following an i.p. route, we selected 50 mg/kg twice a week for both compounds.

[3] = test system: seven pancreatic cell lines; assay: MTT cytotoxicity, panel of seven pancreatic cancer cell lines; type: cell-based; details: seven pancreatic cell lines
Description: as §1, §2

[4] = test system: prostate cancer cell lines CWR22R, LAPC-4 and LnCap; assay: MTT growth inhibition, prostate cancer cell line panel; type: cell-based, human; details: for potency relative to compound 1, prostate cell lines (preliminary screening): CWR22R, LAPC-4, LnCap
Description: as §3

| SMILES | pIC50 (Panc203) | pIC50 (Panc430) | pIC50 (Miapaca2) | pIC50 (CWR22R) | pIC50 (LnCaP) | cell lines with no colony formation at higher doses [1] | toxicity [2] | remaining animals that lost >15% of their weight [2] | mice that died in the 3rd week [2] | potency relative to compound 1, pancreatic cell lines [3] [time] | potency relative to compound 1, prostate cell lines (preliminary screening) [4] [times] | further results |
| --- | --- | --- | --- | --- | --- | --- | --- | --- | --- | --- | --- | --- |
| O=C(NC(=O)c1ccccc1[N+](=O)[O-])Nc1ccc(Sc2ncc(Br)cn2)cc1 [Compound 6n, 1-[4-(5-Bromopyrimidin-2-ylsulfanyl)phenyl]-3-(2-nitrobenzoyl)-urea] | 6.15 | 7.05 | 7.07 | 7.30 | 7.30 | 9 of the 11 | not associated with noticeable toxicity | three of four | two | 20 | 20 | increase in potency over 6m (Panc203): 14 fold; increase in potency over 6m (Panc430; Panc430): 111 fold; increase in potency over 6m (Miapaca2; Mia-paca2): 8 fold; increase in potency over 6m (CWR22R; CWR22R): 100 fold; increase in potency over 6m (LnCaP; LnCap): 20 fold; mice with a weight loss of 15% by the 4th week ([2]; 50 mg/kg twice per week i.p.): One of six; pIC50 ([4]; Homo sapiens, all prostate cell lines, read-out: IC50 against all prostate cell lines): 7.30 |
| Nc1ccccc1C(=O)NC(=O)Nc1ccc(Sc2ncc(Br)cn2)cc1 [Compound 7d] | 7.07 | 6.70 | 7.02 | 6.30 | 6.30 | 9 of the 11 | not associated with noticeable toxicity | four of five | one | 20 | 20 | increase in activity compared to 7c (Panc203): > 117 fold; increase in activity compared to 7c (Panc430; Panc430): > 50 fold; increase in activity compared to 7c (Miapaca2; Miapaca2): 9 fold |
